According to the supplement of paper PMC10307832:

Experiments:
Assay in all cases: relative viability (nuclei count vs DMSO), 5 days (fraction); higher = more cells survive
Cabozantinib = compound: COc1cc2nccc(Oc3ccc(NC(=O)C4(C(=O)Nc5ccc(F)cc5)CC4)cc3)c2cc1OC [Cabozantinib]
How it was run: (§1)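 Cells of lung cancer lines were placed in 1536-well plates and kept overnight at 37 °C. Pinning then delivered five library-drug doses (not always all listed), spaced by √10, onto plates anchored with vehicle, and the cells were left 5 days without changing medium. One step fixed, permeabilised and stained them with Hoechst, and MetaXpress counted nuclei in 4× images. Viability, as a median over plates, is treated-well nuclei divided by vehicle-well nuclei, with acceptance only at control CV below 25% and at least one doubling.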

Zosuquidar = compound: O[C@@H](COc1cccc2ncccc12)CN1CCN([C@@H]2c3ccccc3[C@@H]3[C@H](c4ccccc42)C3(F)F)CC1 [Zosuquidar]
How it was run: as §1

Kobe2602 = compound: C1=CC(=CC=C1NC(=S)NNC2=C(C=C(C=C2[N+](=O)[O-])C(F)(F)F)[N+](=O)[O-])F [Kobe2602]
How it was run: as §1

Cell Line	relative viability (Cabozantinib; 0.02 µM)	relative viability (Cabozantinib; 0.06325 µM)	relative viability (Cabozantinib; 0.2 µM)	relative viability (Cabozantinib; 0.6325 µM)	relative viability (Cabozantinib; 2 µM)	relative viability (Zosuquidar; 0.01 µM)	relative viability (Zosuquidar; 0.03162 µM)	relative viability (Zosuquidar; 0.1 µM)	relative viability (Zosuquidar; 0.3162 µM)	relative viability (Zosuquidar; 1 µM)	relative viability (Kobe2602; 0.2 µM)	relative viability (Kobe2602; 0.6325 µM)	relative viability (Kobe2602; 2 µM)	relative viability (Kobe2602; 6.325 µM)	relative viability (Kobe2602; 20 µM)
NCI-H1437	1.05	1.08	0.946	0.998	0.975	0.976	0.979	0.91	1.09	0.942	0.958	0.978	1	0.983	0.96
NCI-H1563	0.99	0.977	1.04	0.915	1.01	0.936	0.929	0.974	1.13	0.865	0.899	1	0.96	0.971	0.981
NCI-H1623	0.959	1.13	0.731	1	0.972	0.98	0.898	0.879	1	1.02	1.04	1	1.03	0.9	0.933
NCI-H1648	0.868	0.991	0.629	1.07	0.802	0.969	0.947	0.676	0.673	0.852	1.22	0.902	0.701	0.824	0.763
NCI-H1650	0.925	1.13	0.805	1.02	0.89	0.885	0.929	0.876	1.06	0.912	0.891	1.02	0.99	0.913	0.846
NCI-H1651	0.95	1.07	0.92	0.981	0.968	0.985	1.02	0.911	1.02	0.983	0.982	1.01	0.981	0.967	1.01
NCI-H1666	1.01	1.08	1.02	1.03	1.06	0.997	1.08	0.962	1.08	0.945	1.06	1.01	0.963	1.03	1
NCI-H1703	0.57	0.662	0.325	0.262	0.233	1.07	1.14	0.993	1.12	1.01	0.831	1.08	0.83	0.898	0.727
NCI-H1734	0.92	1.01	1.11	1.02	0.938	1	1	0.928	1.08	0.938	1.05	1.05	0.973	0.987	1.1
NCI-H1755	0.994	1.04	0.977	0.923	0.857	0.995	1.01	0.94	1.05	1.01	0.962	0.971	0.993	0.985	0.994
NCI-H1792		1.21	0.915	0.894	0.898	0.833	0.94	0.729	0.954	0.834	0.99	1.02	0.848	0.978	1.07
NCI-H1793	0.846	0.992	0.59	0.832	0.776	0.902	0.754		1.15	0.892	0.862	0.889	0.853	0.86	1.04
NCI-H1915	0.994	1.03	1.02	0.996	0.994	0.986	1.04	0.926	1.04	1.01	0.998	1.08	0.987	0.985	1
NCI-H1944	0.826	1.01	0.961	1.01	0.916	0.942	0.88	0.847	1.08	0.909	1	1.07	0.899	0.992	0.987
NCI-H1975	1.03	1.1	0.961	0.873	0.855	0.934	0.824	0.937	1.06	0.959	0.995	0.978	0.852	0.836	0.905
NCI-H1993	0.681	0.787	0.584	0.734	0.788	0.925	0.879	0.685	1.06	0.826	0.877	0.993	0.876	0.792	0.87
NCI-H2009	1.08	1.06	1.08	1.07	1.15	1.02	0.945	0.929	1.06	0.971	1.02	1.08	0.966	1.04	0.99
NCI-H2023	0.93	0.998	0.803	0.78	0.593	0.949	1.03	0.894	1.1	1.05	0.941	1.02	0.984	0.924	0.663
NCI-H2085	1.07	1.09	0.942	1.05	1.01	0.977	0.955	0.797	1	0.959	1.02	0.994	0.959	0.991	0.96
